Results published in patent US12226455B2, “Medical composition for treating cardiac wasting and cachexia” (RELAXERA Pharmazeutische GmbH & Co. KG, priority 2019, dated 2025).
Marks after values point to notes of the source that are not given here.

How the values were obtained:
[1] = tested on: patients with advanced cancer in the hospice setting; experiment: Level of general wellbeing relative to baseline on a seven-level Likert scale (clinical study); format: in vivo, human; conditions: 25 micrograms/kg body weight/day, n=20
Method: (§1) 30 patients with advanced cancer in the hospice setting are included randomized and double-blind in a clinical study to a 10-day continuous sc. or iv. infusion of either synthetic human relaxin-2 (25 micrograms/kg body weight/day) (n=20) or placebo (n=10). The following exploratory clinical end-points are assessed at baseline and during treatment (day 3 and day 10): • 1. Patients are asked to report their current level of both dyspnea and general wellbeing relative to baseline using seven-level Likert scales. • 2. In the context of this study, ability of self-care is defined as ability to perform the measures of personal daily hygiene (washing, tooth-brushing) without help. • 3. Congestion is assessed as percentage of patients showing ankle edema or rales upon auscultation. • 4. Plasma levels of NT-proBNP (N-terminal fragment of pro-brain natriuretic peptide), a biomarker of cardiac decompensation, are determined. • 5. The four-meter gait speed (4MGS) is measured.

[2] = tested on: patients with advanced cancer in the hospice setting; experiment: Level of dyspnea relative to baseline on a seven-level Likert scale (clinical study); format: in vivo, human; conditions: n=20
Method: as §1

[3] = tested on: patients with advanced cancer in the hospice setting; experiment: Congestion: ankle edema or rales upon auscultation, four-level scale (clinical study); format: in vivo, human; conditions: n=20
Method: as §1

NT-proBNP = experiment: Plasma levels of NT-proBNP, biomarker of cardiac decompensation (clinical study); format: in vivo, human; conditions: n=20; for Plasma NT-proBNP, median: 25 micrograms/kg body weight/day
Method: as §1

[4] = tested on: patients with advanced cancer in the hospice setting; experiment: Four-meter gait speed (4MGS) (clinical study); format: in vivo, human; conditions: n=20
Method: as §1

[5] = continuous subcutaneous infusion over 24 weeks; cited from earlier work
[6] = tested on: patients with advanced cancer in the hospice setting; experiment: Ability of self-care (personal daily hygiene without help), yes-or-no level (clinical study); format: in vivo, human; conditions: n=20
Method: as §1

[7] = tested on: hospice patients with advanced, incurable cancer; experiment: Overall conclusion of the 10-day clinical study in hospice patients; format: in vivo, human; conditions: continuous treatment for 10 days
Method: as §1

[8] = Day 3, 25 micrograms/kg body weight/day continuous sc. or iv. infusion
[9] = Day 3, 25 micrograms/kg body weight/day
[10] = Day 10, 25 micrograms/kg body weight/day

human relaxin-2
Level of general wellbeing: markedly or moderately improved, absolute number of patients ([1]; Day 3): 9 | Level of general wellbeing: markedly or moderately improved, percentage of patients ([1]; Day 3): (45)# % | Level of general wellbeing: markedly or moderately worsened, absolute number of patients ([1]; Day 3): 2 | Level of general wellbeing: markedly or moderately worsened, percentage of patients ([1]; Day 3): (10)# % | Level of general wellbeing: markedly or moderately improved, absolute number of patients ([1]; Day 10): 11 | Level of general wellbeing: markedly or moderately improved, percentage of patients ([1]; Day 10): (55)# % | Level of general wellbeing: markedly or moderately worsened, absolute number of patients ([1]; Day 10): 1 | Level of general wellbeing: markedly or moderately worsened, percentage of patients ([1]; Day 10): 5% | Level of dyspnea: markedly or moderately improved, absolute number of patients [2, 8]: 8 | Level of dyspnea: markedly or moderately improved, percentage of patients [2, 8]: (40)^# % | Level of dyspnea: markedly or moderately worsened, absolute number of patients [2, 9]: 1 | Level of dyspnea: markedly or moderately worsened, percentage of patients [2, 9]: (5)^# % | Level of dyspnea: markedly or moderately improved, absolute number of patients [2, 10]: 12 | Level of dyspnea: markedly or moderately improved, percentage of patients [2, 10]: (60)^# % | Level of dyspnea: markedly or moderately worsened, absolute number of patients [2, 10]: 1 | Level of dyspnea: markedly or moderately worsened, percentage of patients [2, 10]: (5)^# % | Congestion: moderate or severe edema, absolute number of patients ([3]; Baseline): 15 | Congestion: moderate or severe edema, percentage of patients ([3]; Baseline): (75) % | Congestion: moderate or severe rales, absolute number of patients ([3]; Baseline): 16 | Congestion: moderate or severe rales, percentage of patients ([3]; Baseline): (80) % | Congestion: moderate or severe edema, absolute number of patients [3, 9]: 10 | Congestion: moderate or severe edema, percentage of patients [3, 9]: (50) % | Congestion: moderate or severe rales, absolute number of patients [3, 9]: 8 | Congestion: moderate or severe rales, percentage of patients [3, 9]: (40)^# % | Congestion: moderate or severe edema, absolute number of patients [3, 10]: 6 | Congestion: moderate or severe edema, percentage of patients [3, 10]: (30)^# % | Congestion: moderate or severe rales, absolute number of patients [3, 10]: 5 | Congestion: moderate or severe rales, percentage of patients [3, 10]: (25)^# % | Plasma NT-proBNP, median (IQR) (NT-proBNP; Baseline): 3438 (597-4175) pg/ml | Plasma NT-proBNP, median (NT-proBNP; Day 3): 1813 pg/mL | Plasma NT-proBNP, median (NT-proBNP; Day 10): 778 pg/mL | Four-meter gait speed, median ([4]; Baseline): 0.56 m/s | Unable to walk 4 m, % of patients ([4]; Baseline): 35% | Unable to walk 4 m, absolute number of patients ([4]; Baseline): 7 | Four-meter gait speed, median [4, 9]: 0.66 m/s | Unable to walk 4 m, % of patients [4, 9]: 25% | Unable to walk 4 m, absolute number of patients [4, 9]: 5 | Four-meter gait speed, median [4, 10]: 0.86* m/s | Unable to walk 4 m, % of patients [4, 10]: (15)^# % | Unable to walk 4 m, absolute number of patients [4, 10]: 3 | Physiological changes under relaxin infusion [5]: sustained physiological changes which closely mimicked those seen in human pregnancy | Ability of self-care, absolute number of patients ([6]; Baseline): 5 | Ability of self-care, percentage of patients ([6]; Baseline): 25% | Ability of self-care, absolute number of patients [6, 9]: 7 | Ability of self-care, percentage of patients [6, 9]: 35% | Ability of self-care, absolute number of patients [6, 10]: 17 | Ability of self-care, percentage of patients [6, 10]: (85)* % | Clinical signs of cardiac decompensation (congestion, dyspnea, circulating NT-proBNP) [7]: ameliorates clinical signs of cardiac decompensation | Clinical status of hospice patients [7]: markedly improves the clinical status
